Laboratory results: patent US20240165137A1, “METHODS FOR IMPROVING MUSCLE STRENGTH AND MOBILITY” (Intrinsic Medicine, Inc., priority 2020, published 2024)

Tested on: CEBPB expression in LPS-stimulated THP-1 cells
Experiment: Nascent RNA sequencing of LPS-stimulated THP-1 cells (CEBPB expression)
Format: cell-based
Details: 10 ng/mL LPS and 250 μM 2′FL
Experimental: THP-1 Cells were treated with 10 ng/mL LPS or 10 ng/mL LPS and 250 μM 2′FL and extracted for nascent RNAs at 30 min and 24 hours. The nascent RNAs were sequenced and analyzed as described in Azofeifa et al. (2018), Genome Res. 28: 334-344; the contents of which are expressly incorporated by reference herein.

CC1O[C@@H](OC2[C@H](O[C@H]3C(O)C(O)C(O)O[C@H]3CO)OC(CO)[C@H](O)[C@@H]2O)C(O)[C@@H](O)[C@@H]1O (stereo partly drawn) [2′FL, 2′-fucosyllactose]
CEBPB maximum enrichment score (nascent RNAs, 2′FL+LPS versus LPS alone) (30 min): 40
CEBPB maximum enrichment score (nascent RNAs, 2′FL+LPS versus LPS alone) (24 hours): 20
CEBPB expression (nascent RNAs, 2′FL+LPS versus LPS alone) (both the 30 min and 24 hour time points): enhanced and upregulated
